In patent US5874457A, “Imidazolylalkyl derivatives of imidazo[1,5-a]indol-3-one” (Pharmacia & Upjohn S.p.A., priority 1994, dated 1999):

Tests used:
[1] = target: T1, 5-HT3 (Rattus norvegicus, UniProt P35563); experiment: Inhibition of the binding of ^3 H-BRL 43694 (5-HT3 binding affinity, rat entorhinal cortex); parameters: from tissue; host or cells: rat entorhinal cortex (brain cortical membranes)
T1 sequence (P35563 24-483): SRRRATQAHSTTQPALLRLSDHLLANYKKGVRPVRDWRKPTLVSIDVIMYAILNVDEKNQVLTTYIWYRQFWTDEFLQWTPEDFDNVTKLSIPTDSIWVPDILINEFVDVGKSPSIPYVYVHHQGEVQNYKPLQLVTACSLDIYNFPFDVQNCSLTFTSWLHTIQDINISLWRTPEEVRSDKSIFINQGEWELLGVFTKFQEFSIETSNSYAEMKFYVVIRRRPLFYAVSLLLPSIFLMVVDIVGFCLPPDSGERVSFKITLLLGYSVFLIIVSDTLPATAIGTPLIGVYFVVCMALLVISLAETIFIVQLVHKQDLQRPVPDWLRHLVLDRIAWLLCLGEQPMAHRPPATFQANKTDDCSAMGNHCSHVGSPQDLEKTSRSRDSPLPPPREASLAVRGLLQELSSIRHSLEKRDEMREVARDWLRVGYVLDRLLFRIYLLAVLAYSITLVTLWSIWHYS
Excerpt: The following Table II summarized the data obtained in this in-vitro test for the representative compound of the invention coded as FCE 28572.
5-HT3 binding affinity for rat entorhinal

[2] = target: T1, 5-HT3; experiment: Inhibition of the von Bezold-Jarisch chemoreflex evoked by 5-HT in the anesthetized rat (5HT3 antagonist activity in vivo); parameters: evoked by 5-HT in the anesthetized rat; from tissue; host or cells: living anesthetized rat (in vivo; native receptors, by own knowledge on cardiac vagal afferents); conditions: 5-HT 30 μg/kg i.v.
Description: Pharmacol. 326, 36-44 (1984).
The following Table I reports in-vivo 5HT3 antagonist activity data obtained in this test for the representative compound of the invention 2-(5-methyl-1H-imidazol-4-yl)methyl-1,2-dihydro-imidazo[1,5-a]indol-3-one (internal code […]).
elicited by 5-HT (30 μg/kg i.v.) by FCE 28572
in the anesthetized rat. Values are mean ± in […]

With `Cc1[nH]cnc1CN1Cc2cc3ccccc3n2C1=O` [FCE 28572, 2-(5-methyl-1H-imidazol-4-yl)methyl-1,2-dihydro-imidazo[1,5-a]indol-3-one] the IC50 [1] was 0.023 µM, the “% inhibition of the von Bezold-Jarisch reflex elicited by 5-HT” value ([2]; compound 100 μg/kg i.v., mean ± S.E.M. from 6 animals) was 86.7% and the ED50 ([2]; iv, limits (10.4-31.7), read-out: ED50 (limits), inhibition of the von Bezold-Jarisch reflex elicited by 5-HT) was 0.0161 mg/kg.
